Values belong to the molecule of their own block, whether it stands above or below them.
Columns and labels:
Androgen receptor = target: T1, Androgen receptor (Homo sapiens, UniProt P10275)
T1 sequence (P10275 whole entry): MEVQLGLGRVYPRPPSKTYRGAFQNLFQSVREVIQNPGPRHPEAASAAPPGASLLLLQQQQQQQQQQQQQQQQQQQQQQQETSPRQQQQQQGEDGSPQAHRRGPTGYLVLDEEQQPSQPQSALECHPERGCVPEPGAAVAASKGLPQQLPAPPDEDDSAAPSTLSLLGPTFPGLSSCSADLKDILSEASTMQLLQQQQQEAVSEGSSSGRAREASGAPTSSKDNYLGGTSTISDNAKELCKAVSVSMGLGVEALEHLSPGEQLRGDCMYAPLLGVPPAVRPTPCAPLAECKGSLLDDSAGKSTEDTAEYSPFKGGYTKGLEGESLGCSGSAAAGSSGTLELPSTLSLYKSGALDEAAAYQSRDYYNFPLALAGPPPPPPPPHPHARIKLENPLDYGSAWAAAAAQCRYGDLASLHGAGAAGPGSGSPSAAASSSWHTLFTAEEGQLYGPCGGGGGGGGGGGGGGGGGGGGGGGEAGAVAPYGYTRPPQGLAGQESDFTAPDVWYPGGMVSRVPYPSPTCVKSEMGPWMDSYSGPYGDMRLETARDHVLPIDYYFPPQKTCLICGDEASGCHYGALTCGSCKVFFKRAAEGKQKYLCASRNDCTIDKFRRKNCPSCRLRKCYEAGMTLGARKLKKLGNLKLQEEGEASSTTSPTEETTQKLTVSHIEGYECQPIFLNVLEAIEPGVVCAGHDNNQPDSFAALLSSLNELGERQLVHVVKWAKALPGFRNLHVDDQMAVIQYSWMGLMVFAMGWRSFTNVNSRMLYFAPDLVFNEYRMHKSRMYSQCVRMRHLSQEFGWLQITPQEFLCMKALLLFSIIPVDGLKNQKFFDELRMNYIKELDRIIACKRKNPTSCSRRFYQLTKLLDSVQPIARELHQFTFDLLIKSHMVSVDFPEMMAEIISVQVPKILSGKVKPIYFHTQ

[1] = target: Sodium-dependent serotonin transporter (Homo sapiens, UniProt P31645)
Sodium-dependent serotonin transporter, sequence (P31645 whole entry): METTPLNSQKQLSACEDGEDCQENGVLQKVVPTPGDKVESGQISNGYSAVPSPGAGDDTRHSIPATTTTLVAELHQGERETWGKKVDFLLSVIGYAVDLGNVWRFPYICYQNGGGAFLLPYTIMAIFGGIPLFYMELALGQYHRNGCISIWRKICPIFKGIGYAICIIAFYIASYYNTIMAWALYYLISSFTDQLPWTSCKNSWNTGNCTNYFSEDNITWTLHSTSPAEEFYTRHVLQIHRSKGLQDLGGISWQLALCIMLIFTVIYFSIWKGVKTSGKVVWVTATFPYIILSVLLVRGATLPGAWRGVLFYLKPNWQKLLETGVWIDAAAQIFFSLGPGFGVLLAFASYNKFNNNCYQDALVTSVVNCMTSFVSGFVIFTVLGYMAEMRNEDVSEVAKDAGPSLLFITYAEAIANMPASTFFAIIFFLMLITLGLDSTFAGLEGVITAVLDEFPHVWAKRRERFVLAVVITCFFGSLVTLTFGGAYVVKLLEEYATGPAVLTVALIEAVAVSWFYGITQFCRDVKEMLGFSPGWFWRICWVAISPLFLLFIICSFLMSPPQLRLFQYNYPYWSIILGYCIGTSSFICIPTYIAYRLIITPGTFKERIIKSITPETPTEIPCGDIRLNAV

[2] = target: 5-hydroxytryptamine receptor 2A (Homo sapiens, UniProt P28223); assay type: functional, cell-based
5-hydroxytryptamine receptor 2A, sequence (P28223 whole entry): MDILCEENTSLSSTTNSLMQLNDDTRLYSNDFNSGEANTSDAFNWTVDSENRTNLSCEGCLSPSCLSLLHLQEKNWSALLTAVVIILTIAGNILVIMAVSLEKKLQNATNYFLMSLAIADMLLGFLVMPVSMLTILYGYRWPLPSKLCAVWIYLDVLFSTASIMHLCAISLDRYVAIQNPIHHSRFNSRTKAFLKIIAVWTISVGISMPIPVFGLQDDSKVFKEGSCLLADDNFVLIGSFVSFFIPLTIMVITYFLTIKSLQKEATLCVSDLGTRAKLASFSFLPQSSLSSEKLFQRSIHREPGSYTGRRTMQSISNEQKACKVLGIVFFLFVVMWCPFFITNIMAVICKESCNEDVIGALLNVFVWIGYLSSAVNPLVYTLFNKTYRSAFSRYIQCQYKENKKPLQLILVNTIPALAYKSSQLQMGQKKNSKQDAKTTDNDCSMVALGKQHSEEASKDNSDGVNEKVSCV

[3] = target: Muscarinic acetylcholine receptor M3 (Homo sapiens, UniProt P20309)
Muscarinic acetylcholine receptor M3, sequence (P20309 whole entry): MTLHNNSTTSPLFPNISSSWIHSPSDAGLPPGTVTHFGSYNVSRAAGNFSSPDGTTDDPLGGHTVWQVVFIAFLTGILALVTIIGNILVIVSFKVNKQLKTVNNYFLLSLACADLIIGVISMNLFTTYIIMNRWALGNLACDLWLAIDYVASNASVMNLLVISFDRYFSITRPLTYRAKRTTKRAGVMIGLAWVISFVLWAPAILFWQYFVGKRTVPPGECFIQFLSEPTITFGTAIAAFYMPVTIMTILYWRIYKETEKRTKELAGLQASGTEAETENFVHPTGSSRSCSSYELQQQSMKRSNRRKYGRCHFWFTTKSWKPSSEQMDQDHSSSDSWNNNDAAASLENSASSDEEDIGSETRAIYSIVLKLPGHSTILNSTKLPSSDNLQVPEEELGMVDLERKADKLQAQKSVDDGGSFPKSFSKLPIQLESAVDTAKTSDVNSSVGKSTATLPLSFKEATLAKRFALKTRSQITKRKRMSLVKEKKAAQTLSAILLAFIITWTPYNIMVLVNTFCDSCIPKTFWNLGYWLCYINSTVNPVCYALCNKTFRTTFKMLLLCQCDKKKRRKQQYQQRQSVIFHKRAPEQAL

Melanocortin receptor 4 = Melanocortin receptor 4 (Homo sapiens, UniProt P32245)
Melanocortin receptor 4, sequence (P32245 whole entry): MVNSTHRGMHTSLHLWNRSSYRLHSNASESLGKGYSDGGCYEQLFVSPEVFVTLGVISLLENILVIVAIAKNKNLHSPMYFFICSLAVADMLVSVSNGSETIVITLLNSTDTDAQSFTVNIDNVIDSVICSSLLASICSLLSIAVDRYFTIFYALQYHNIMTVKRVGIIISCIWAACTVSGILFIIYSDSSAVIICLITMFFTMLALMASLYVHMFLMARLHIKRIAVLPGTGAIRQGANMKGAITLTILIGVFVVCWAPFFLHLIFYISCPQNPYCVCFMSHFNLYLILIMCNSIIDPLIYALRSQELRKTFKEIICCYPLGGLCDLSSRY

[4] = target: T2, Alpha-1A adrenergic receptor (Homo sapiens, UniProt P35348)
T2 sequence (P35348 whole entry): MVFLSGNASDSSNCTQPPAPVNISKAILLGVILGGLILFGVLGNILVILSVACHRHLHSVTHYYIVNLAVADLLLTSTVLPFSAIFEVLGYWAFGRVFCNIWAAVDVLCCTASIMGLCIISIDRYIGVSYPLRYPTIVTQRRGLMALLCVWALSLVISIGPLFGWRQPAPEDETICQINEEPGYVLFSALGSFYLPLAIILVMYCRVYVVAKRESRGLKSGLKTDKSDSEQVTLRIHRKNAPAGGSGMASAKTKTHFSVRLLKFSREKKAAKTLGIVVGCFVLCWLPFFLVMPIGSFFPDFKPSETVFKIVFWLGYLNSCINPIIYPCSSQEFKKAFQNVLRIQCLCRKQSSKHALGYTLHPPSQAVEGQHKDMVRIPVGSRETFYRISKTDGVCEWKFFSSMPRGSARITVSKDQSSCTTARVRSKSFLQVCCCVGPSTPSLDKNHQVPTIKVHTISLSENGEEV

[5] = target: Beta-3 adrenergic receptor (Homo sapiens, UniProt P13945)
Beta-3 adrenergic receptor, sequence (P13945 whole entry): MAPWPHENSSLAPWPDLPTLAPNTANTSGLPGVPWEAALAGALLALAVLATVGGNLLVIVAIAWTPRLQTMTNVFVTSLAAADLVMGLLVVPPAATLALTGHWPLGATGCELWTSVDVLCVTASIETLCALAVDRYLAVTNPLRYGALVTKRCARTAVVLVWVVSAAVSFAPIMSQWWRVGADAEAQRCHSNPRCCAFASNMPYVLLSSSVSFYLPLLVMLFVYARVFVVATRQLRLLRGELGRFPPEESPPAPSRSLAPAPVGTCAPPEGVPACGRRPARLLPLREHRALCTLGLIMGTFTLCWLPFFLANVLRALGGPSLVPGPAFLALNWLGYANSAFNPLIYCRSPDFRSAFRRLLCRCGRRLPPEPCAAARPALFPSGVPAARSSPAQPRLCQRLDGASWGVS

Glucagon receptor = Glucagon receptor (Homo sapiens, UniProt P47871)
Glucagon receptor, sequence (P47871 whole entry): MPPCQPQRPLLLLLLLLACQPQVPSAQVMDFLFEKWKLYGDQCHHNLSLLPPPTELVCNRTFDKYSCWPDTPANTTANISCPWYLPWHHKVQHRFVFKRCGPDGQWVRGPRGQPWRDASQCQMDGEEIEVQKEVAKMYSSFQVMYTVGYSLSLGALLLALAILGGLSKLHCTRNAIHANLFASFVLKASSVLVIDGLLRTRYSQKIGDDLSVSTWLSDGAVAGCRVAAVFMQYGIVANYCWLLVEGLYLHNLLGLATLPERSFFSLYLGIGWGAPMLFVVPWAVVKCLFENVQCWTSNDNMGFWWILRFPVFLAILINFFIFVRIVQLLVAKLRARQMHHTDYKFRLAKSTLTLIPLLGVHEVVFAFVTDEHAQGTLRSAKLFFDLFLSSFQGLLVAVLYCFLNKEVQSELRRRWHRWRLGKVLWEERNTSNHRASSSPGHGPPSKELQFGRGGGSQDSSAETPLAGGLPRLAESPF

[6] = target: T3, Corticotropin-releasing factor receptor 2 (Homo sapiens, UniProt Q13324)
T3 sequence (Q13324 whole entry): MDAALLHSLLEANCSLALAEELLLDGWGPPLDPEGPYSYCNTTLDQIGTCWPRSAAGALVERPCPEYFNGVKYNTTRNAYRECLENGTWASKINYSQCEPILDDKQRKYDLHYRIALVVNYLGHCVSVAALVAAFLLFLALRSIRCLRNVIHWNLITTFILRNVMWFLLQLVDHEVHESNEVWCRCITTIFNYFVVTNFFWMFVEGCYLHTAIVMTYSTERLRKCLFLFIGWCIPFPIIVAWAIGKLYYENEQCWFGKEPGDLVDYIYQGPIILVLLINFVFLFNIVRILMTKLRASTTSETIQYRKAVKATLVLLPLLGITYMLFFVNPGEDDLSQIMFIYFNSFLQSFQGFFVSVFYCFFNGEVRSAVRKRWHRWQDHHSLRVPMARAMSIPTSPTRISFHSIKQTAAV

[7] = target: T4, Neuropeptide Y receptor type 2 (Homo sapiens, UniProt P49146)
T4 sequence (P49146 whole entry): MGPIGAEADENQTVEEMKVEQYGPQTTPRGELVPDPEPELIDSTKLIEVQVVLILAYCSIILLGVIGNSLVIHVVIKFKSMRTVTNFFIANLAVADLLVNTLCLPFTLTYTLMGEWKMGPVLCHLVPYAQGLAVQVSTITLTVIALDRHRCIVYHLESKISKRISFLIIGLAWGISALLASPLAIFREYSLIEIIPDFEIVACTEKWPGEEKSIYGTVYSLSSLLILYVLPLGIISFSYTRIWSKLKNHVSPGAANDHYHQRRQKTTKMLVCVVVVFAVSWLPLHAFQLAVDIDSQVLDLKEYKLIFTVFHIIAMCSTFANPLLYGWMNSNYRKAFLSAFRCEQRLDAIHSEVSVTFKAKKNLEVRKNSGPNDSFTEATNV
Also: assay procedure not described here.

SMILES: COc1nccnc1NS(=O)(=O)c1ccc(N)cc1
AC50 (Androgen receptor): > 30 µM

SMILES: NC(=O)c1nc(F)c[nH]c1=O
AC50 (Androgen receptor): > 30 µM

SMILES: CC(=N)N1CC[C@H](SC2=C(C(=O)O)N3C(=O)[C@H]([C@@H](C)O)[C@H]3C2)C1
AC50 [1]: 37 µM | AC50 [2]: > 300 µM | AC50 [3]: 290 µM

SMILES: CN(C)CCCN1C(=O)c2cc([N+](=O)[O-])ccc2Oc2ccccc21
AC50 (Androgen receptor): > 30 µM

AC50 [1]: > 30 µM | AC50 [2]: > 30 µM | AC50 [3]: > 10 µM | AC50 (Melanocortin receptor 4): > 30 µM | AC50 [4]: > 10 µM
SMILES: O=C1CN2Cc3c(ccc(Cl)c3Cl)N=C2N1 [ANAGRELIDE]

AC50 [3]: > 30 µM
SMILES: CNCC[C@@H](Oc1ccccc1C)c1ccccc1 [ATOMOXETINE]

SMILES: O=C(O)COc1nn(Cc2ccccc2)c2ccccc12 [BENDAZAC]
AC50 (Androgen receptor): > 30 µM

AC50 (Melanocortin receptor 4): > 30 µM | AC50 [4]: > 10 µM
SMILES: CCc1oc2ccccc2c1C(=O)c1cc(Br)c(O)c(Br)c1 [BENZBROMARONE]

AC50 [1]: > 30 µM | AC50 [2]: > 30 µM | AC50 [3]: > 30 µM
SMILES: CO/N=C(\C(=O)N[C@@H]1C(=O)N2C(C(=O)O)=C(COC(N)=O)CS[C@H]12)c1ccco1 [CEFUROXIME]

AC50 [1]: 1 µM | AC50 [2]: 1.83 µM | AC50 [3]: 7.8 µM | AC50 (Melanocortin receptor 4): 0.271 µM | AC50 [4]: 0.607 µM
SMILES: [H]/N=C(\N/C(=N/[H])NCCCCCCNC(=N)NC(=N)Nc1ccc(Cl)cc1)Nc1ccc(Cl)cc1 [CHLORHEXIDINE]

AC50 [5]: > 30 µM | AC50 (Glucagon receptor): > 30 µM | AC50 [6]: > 30 µM | AC50 (Melanocortin receptor 4): > 30 µM | AC50 [7]: > 30 µM
SMILES: Clc1cccc(Cl)c1N=C1NCCN1 [CLONIDINE]

AC50 [5]: > 30 µM | AC50 (Glucagon receptor): > 30 µM | AC50 [6]: > 30 µM | AC50 (Melanocortin receptor 4): > 30 µM | AC50 [4]: > 10 µM | AC50 [7]: > 30 µM
SMILES: COC(=O)[C@H](c1ccccc1Cl)N1CCc2sccc2C1 [CLOPIDOGREL]

SMILES: CN(CC(=O)O)C(=N)N [CREATINE]
AC50 (Androgen receptor): > 30 µM

SMILES: N[C@@H](CSSC[C@H](N)C(=O)O)C(=O)O [CYSTINE]
AC50 (Androgen receptor): > 30 µM

SMILES: CN1C[C@H](C(=O)N[C@]2(C)O[C@@]3(O)[C@@H]4CCCN4C(=O)[C@H](Cc4ccccc4)N3C2=O)C[C@@H]2c3cccc4[nH]cc(c34)C[C@H]21 [DIHYDROERGOTAMINE]
AC50 [5]: 0.26 µM | AC50 (Glucagon receptor): > 30 µM | AC50 [6]: > 30 µM | AC50 (Melanocortin receptor 4): > 30 µM | AC50 [4]: 0.0376 µM | AC50 [7]: > 30 µM

SMILES: C#Cc1cccc(Nc2ncnc3cc(OCCOC)c(OCCOC)cc23)c1 [ERLOTINIB]
AC50 [3]: > 30 µM

SMILES: CCC(=O)O[C@@H](O[P@](=O)(CCCCc1ccccc1)CC(=O)N1C[C@H](C2CCCCC2)C[C@H]1C(=O)O)C(C)C [FOSINOPRIL]
AC50 [2]: > 30 µM | AC50 [3]: > 30 µM

SMILES: CC(C)(N)C(=O)N[C@H](Cc1c[nH]c2ccccc12)C(=O)N[C@H](Cc1c[nH]c2ccccc12)NC=O [MACIMORELIN]
AC50 (Androgen receptor): > 30 µM

SMILES: C=C1c2c(Cl)ccc(O)c2C(=O)C2=C(O)[C@]3(O)C(=O)C(C(N)=O)=C(O)[C@@H](N(C)C)[C@@H]3[C@@H](O)[C@H]12 [MECLOCYCLINE]
AC50 (Androgen receptor): > 30 µM
